Measurements taken from patent US8202563B2, “Acidulate composition and methods for making and utilizing the same” (Clabber Girl Corporation, priority 2008, dated 2012).

System: microbial growth (mold)
Assay: 6-month storage test of flour tortillas, visual signs of microbial growth
Conditions: flour tortillas with sodium propionate and potassium sorbate, acidulate 0.2832 weight %, stored at about 77° F., end of 6-month period
Method: The ingredients listed in Table 1 were combined at 100° F. The water and flour mixture was mixed for 2 minutes at a low speed with a dough hook. The dough was allowed to stand for 5 minutes and then divided into 50-gram balls that were heat pressed at 175° F. for 10 seconds. The raw tortillas were then baked on a griddle at 400° F. for 30 seconds on each side, and subsequently cooled.
Tortillas from each test batch were evaluated after baking for volume, eating quality, and microbial growth. Thereafter, tortilla specimens from of each batch were heat sealed in cellophane bags, bagged in ZIPLOCK® freezer pouches and stored at about 77° F. All test batches of tortilla samples were checked periodically for visual signs of microbial growth, volume reduction, and overall appearance over a 6-month period.

O=C(O)/C=C/C(=O)O [raw fumaric acid, fumaric acid]
visual signs of microbial growth / mold on tortillas: visual signs of microbial growth, albeit to a lesser extent than the control tortillas
